Results: US20110111986A1, “NOVEL SACCHARIDE PRIMER AND USE THEREOF” (KEIO UNIVERSITY, priority 2007, published 2011)

Tested on: B16 cells
Experiment: Sugar chain extension reaction in B16 cells with saccharide primer (HPTLC, densitometer)
Type: cell-based, mouse
Conditions: for extended sugar chain product detected by HPTLC: B16 cells 2.0×10^6 cells/plate, 48 hours, medium fraction and cell fraction, resorcinol staining
Experimental: When a saccharide primer is administered to the sugar chain-synthesizing cell described above, this cell reacts with the saccharide primer, and as a result, a desired sugar chain can be obtained. Specifically, a saccharide primer is administered at a concentration of 50 μM to a medium in which sugar chain-synthesizing cells (for example, B16 cells) are cultured, and the mixture is incubated at 37° C. for about 2 days. During that period, the saccharide primer is introduced into the cells, a sugar is added to the saccharide primer, and various types of sugar chains are produced in the culture liquid. The sugar chains are recovered from the culture liquid by a method known to a person skilled in the art, for example, a lectin column or a commercially available sugar chain purification kit.
First, the saccharide primer Lac-C12 and the saccharide primer Lac-C13:1(2) were added to each medium in which B16 cells (mouse melanoma cells strongly expressing GM3) (Japan Health Science Foundation, Health Science Research Resources Bank) were plated at a concentration of 2.0×10^6 cells/plate, and then incubated for 48 hours. Then, the medium and the cells were separated by centrifugation, and each of collected substances was analyzed with HPTLC.
With regard to the saccharide primer Lac-C12 and the saccharide primer Lac-C13:1(2), their sugar chain extension efficiencies in B16 cells and amounts of the saccharide primers taken into the cells were compared by a quantitative analysis with a densitometer.

| SMILES | extended sugar chain product detected by HPTLC | sugar chain extension efficiency (amounts of extended sugar chain products) (B16 cells, medium fraction, 48 hours incubation, densitometer quantitation, compared with Lac-C12, listed as Lac-O-C13:1(2)) |
| --- | --- | --- |
| CCCCCCCCCC/C=C/CO[C@@H]1OC(CO)[C@@H](O[C@@H]2OC(CO)[C@H](O)C(O)C2O)C(O)C1O (stereo partly drawn) [Lac-C13:1(2), 1-O-(trans-2-tridecenyl)-4-O-(β-D-galactopyranosyl)-β-D-glucopyranoside] | a product X was confirmed in both the medium fraction and the cell fraction | equal to or greater than those obtained by using a conventional primer |
| CCCCCCCCCCCCO[C@@H]1OC(CO)[C@@H](O[C@@H]2OC(CO)[C@H](O)[C@H](O)C2O)[C@H](O)C1O (stereo partly drawn) [Lac-C12, reference compound] | a product X′ was confirmed in both the medium fraction and the cell fraction |  |
